{"source": "patent US20240124398A1", "about": "(priority 2021, published 2024)", "key": {"[1]": {"experiment": "Static storage for 7 days at 40° C./75% RH (XRPD and HPLC)", "conditions": "for Static Storage 40° C./75% RH: HPLC: HPLC purity after 7 days at 40° C. and 75% relative humidity; for Static Storage 40° C./75% RH: XRPD: XRPD pattern after 7 days at 40° C. and 75% relative humidity"}, "[2]": {"experiment": "Solubility of psilocin salts in saline", "conditions": "for XRPD of Residue: solid residue after 5 hours in saline; for Solubility (in words): comparison among forms or with freeform"}, "GVS (hygroscopicity)": {"experiment": "GVS (hygroscopicity)", "type": "physicochemical"}, "[3]": {"experiment": "Intrinsic dissolution rate (IDR)", "type": "physicochemical", "conditions": "for IDR (in words): ranking among TAR Pattern 1, SUC Pattern 3, BEN Pattern 1"}, "[4]": {"conditions": "Table 9, saturated solution in saline, 25° C., 5 hours"}}, "note": "“And” between values parts separate entries of the source, which are not always exact repeats. Equal values may be shown once. “Also recorded” adds a separate entry of the source. Where a name gives a salt, the structure may show the parent alone."}
{"compound": "Psilocin acetate [Psilocin acetate ACE Pattern 1]", "values": [{"measurement": "Static Storage 40° C./75% RH: HPLC", "setting": "[1]", "result": "HPLC - 75.2%"}, {"measurement": "Static Storage 40° C./75% RH: XRPD", "setting": "[1]", "result": "ACE Pattern 1 +"}]}
{"compound": "CN(C)CCc1c[nH]c2cccc(O)c12.O=C(O)c1ccccc1O", "note": "[Psilocin salicylate SAL Pattern 1, Psilocin salicylate]", "values": [{"measurement": "pH at 5 hrs", "setting": "[2]; [4]", "result": 4.2}, {"measurement": "XRPD of Residue", "setting": "[2]; Table 9", "result": "SAL Pattern 1"}, {"measurement": "pH at 5 hrs", "setting": "[2]; Table 10 (updated), saline", "result": 4.2}, {"measurement": "Solubility (in words)", "setting": "[2]; saline", "result": "substantial increases in solubility compared with the freeform"}, {"measurement": "Static Storage 40° C./75% RH: HPLC", "setting": "[1]", "result": "HPLC- 99.1%"}, {"measurement": "Static Storage 40° C./75% RH: XRPD", "setting": "[1]", "result": "SAL Pattern"}]}
{"compound": "Psilocin succinate [SUC Pattern 3]", "values": [{"measurement": "GVS hygroscopicity (in words)", "setting": "GVS (hygroscopicity)", "result": "hygroscopic"}, {"measurement": "GVS mass change between 0 and 80% RH", "setting": "GVS (hygroscopicity); 0-80% RH", "result": "Only 1.0% mass"}, {"measurement": "IDR", "setting": "[3]", "result": 12.4, "unit": "mg/min/cm2"}, {"measurement": "IDR (in words)", "setting": "[3]", "result": "highest IDR"}]}
{"compound": "CN(C)CCc1c[nH]c2cccc(O)c12.O=C(O)c1ccccc1O", "note": "[Psilocin salicylate SAL Pattern 2, Psilocin salicylate]", "values": [{"measurement": "Static Storage 40° C./75% RH: HPLC", "setting": "[1]", "result": "HPLC- 99.8%"}, {"measurement": "Static Storage 40° C./75% RH: XRPD", "setting": "[1]", "result": "SAL Pattern 2 +"}]}
{"compound": "Psilocin oxalate [Psilocin oxalate OX Pattern 2]", "values": [{"measurement": "Static Storage 40° C./75% RH: HPLC", "setting": "[1]", "result": "HPLC- 97.1%"}, {"measurement": "Static Storage 40° C./75% RH: XRPD", "setting": "[1]", "result": "OX Pattern 3 +"}]}
{"compound": "Psilocin tartrate [TAR Pattern 1]", "values": [{"measurement": "GVS hygroscopicity (in words)", "setting": "GVS (hygroscopicity)", "result": "Slightly Hygroscopic"}, {"measurement": "GVS reversible mass change between 0-90% RH", "setting": "GVS (hygroscopicity)", "result": "Reversible 1.4%"}, {"measurement": "pH at 5 hrs", "setting": "[2]; [4]", "result": 3.4}, {"measurement": "pH at 5 hrs", "setting": "[2]; Table 10 (updated), saline", "result": 3.5}, {"measurement": "IDR", "setting": "[3]", "result": 6.9, "unit": "mg/min/cm2"}, {"measurement": "IDR (in words)", "setting": "[3]", "result": "second highest IDR"}]}
{"compound": "Psilocin pamoate [Psilocin pamoate PAM Pattern 1]", "values": [{"measurement": "Static Storage 40° C./75% RH: HPLC", "setting": "[1]", "result": "HPLC- 99.6%"}, {"measurement": "Static Storage 40° C./75% RH: XRPD", "setting": "[1]", "result": "PAM Pattern 1"}]}
{"compound": "CN(C)CCc1c[nH]c2cccc(O)c12.O=S(=O)(O)c1cccc2c(S(=O)(=O)O)cccc12", "note": "[Psilocin 1,5-napthalenedisulfonate NAP Pattern 1]", "values": [{"measurement": "pH at 5 hrs", "setting": "[2]; [4]", "result": 2.0}, {"measurement": "XRPD of Residue", "setting": "[2]; Table 9", "result": "NAP Pattern 1"}, {"measurement": "pH at 5 hrs", "setting": "[2]; Table 10 (updated), saline", "result": 2.0}, {"measurement": "Solubility (in words)", "setting": "[2]; saline", "result": "substantial increases in solubility compared with the freeform"}, {"measurement": "Static Storage 40° C./75% RH: HPLC", "setting": "[1]", "result": "HPLC- 97.2%"}, {"measurement": "Static Storage 40° C./75% RH: XRPD", "setting": "[1]", "result": "NAP Pattern 1"}]}
{"compound": "Psilocin fumarate [Psilocin fumarate FUM Pattern 1]", "values": [{"measurement": "Static Storage 40° C./75% RH: XRPD", "setting": "[1]", "result": "FUM Pattern 3; also recorded: FUM Pattern 4"}]}
{"compound": "Psilocin succinate", "values": [{"measurement": "Static Storage 40° C./75% RH: XRPD", "setting": "[1]", "result": "SUC Pattern 5"}]}
{"compound": "Psilocin phosphate [Psilocin phosphate PHO Pattern 1]", "values": [{"measurement": "Static Storage 40° C./75% RH: HPLC", "setting": "[1]", "result": "HPLC - 93.9%"}, {"measurement": "Static Storage 40° C./75% RH: XRPD", "setting": "[1]", "result": "PHO Pattern 2"}]}
{"compound": "Psilocin acetate [Psilocin acetate ACE Pattern 2]", "values": [{"measurement": "Static Storage 40° C./75% RH: HPLC", "setting": "[1]", "result": "HPLC- 83.4%"}, {"measurement": "Static Storage 40° C./75% RH: XRPD", "setting": "[1]", "result": "ACE Pattern 3"}]}
{"compound": "Psilocin oxalate [Psilocin oxalate OX Pattern 1]", "values": [{"measurement": "Static Storage 40° C./75% RH: HPLC", "setting": "[1]", "result": "HPLC- 94.4%"}, {"measurement": "Static Storage 40° C./75% RH: XRPD", "setting": "[1]", "result": "OX Pattern 3"}]}
{"compound": "CN(C)CCc1c[nH]c2cccc(O)c12", "note": "[Psilocin free base, Psilocin, reference compound]", "values": [{"measurement": "pH at 5 hrs", "setting": "[2]; [4]", "result": "9.8 and 9.9"}, {"measurement": "XRPD of Residue", "setting": "[2]; Table 9", "result": "Freeform Pattern 1"}, {"measurement": "pH at 5 hrs", "setting": "[2]; Table 10 (updated), saline", "result": "9.8 and 9.9"}, {"measurement": "IDR", "setting": "[3]", "result": "[Freeform = 0.09] mg/min/cm2"}]}
{"compound": "CN(C)CCc1c[nH]c2cccc(O)c12", "note": "[Psilocin hydrochloride HCl Pattern 1, Psilocin hydrochloride]", "values": [{"measurement": "pH at 5 hrs", "setting": "[2]; Table 9, saturated solution in saline, 25° C., 5 hours, hydrochloride", "result": "6.0 and 6.1"}, {"measurement": "pH at 5 hrs", "setting": "[2]; Table 10 (updated), saline, hydrochloride", "result": "4.0 and 5.4"}]}
{"compound": "CN(C)CCc1c[nH]c2cccc(O)c12.O=C(O)c1ccccc1", "note": "[BEN Pattern 1, Psilocin benzoate]", "values": [{"measurement": "GVS hygroscopicity (in words)", "setting": "GVS (hygroscopicity)", "result": "Non-hygroscopic"}, {"measurement": "GVS reversible mass change between 0-90% RH", "setting": "GVS (hygroscopicity)", "result": "Reversible 0.25%"}, {"measurement": "pH at 5 hrs", "setting": "[2]; Table 9, saturated solution in saline, 25° C., 5 hours, listed as Psilocin benzoate BEN Pattern 1", "result": "6.8 and 6.9"}, {"measurement": "XRPD of Residue", "setting": "[2]; Table 9", "result": "BEN Pattern 1"}, {"measurement": "pH at 5 hrs", "setting": "[2]; Table 10 (updated), saline, listed as Psilocin benzoate BEN Pattern 1", "result": "6.8 and 6.9"}, {"measurement": "Solubility (in words)", "setting": "[2]; saline", "result": "substantial increases in solubility compared with the freeform; also recorded: lowest solubility"}, {"measurement": "Solubility in Saline", "setting": "[2]; summary Table 4, saline, 25° C., 5 hours", "result": 5000, "unit": "µg/mL"}, {"measurement": "Static Storage 40° C./75% RH: HPLC", "setting": "[1]", "result": "HPLC- 99.0%"}, {"measurement": "Static Storage 40° C./75% RH: XRPD", "setting": "[1]", "result": "BEN Pattern 1"}, {"measurement": "IDR", "setting": "[3]", "result": 0.4, "unit": "mg/min/cm2"}, {"measurement": "IDR (in words)", "setting": "[3]", "result": "lowest"}]}
{"compound": "Psilocin adipate [Psilocin adipate ADI Pattern 1]", "values": [{"measurement": "Static Storage 40° C./75% RH: HPLC", "setting": "[1]", "result": "HPLC- 98.4%"}, {"measurement": "Static Storage 40° C./75% RH: XRPD", "setting": "[1]", "result": "ADI Pattern 1 +"}]}
{"compound": "CN(C)CCc1c[nH]c2cccc(O)c12.O=S(=O)(O)c1cccc2c(S(=O)(=O)O)cccc12", "note": "[Psilocin 1,5-napthalenedisulfonate NAP Pattern 2]", "values": [{"measurement": "Static Storage 40° C./75% RH: HPLC", "setting": "[1]", "result": "HPLC - 99.2%"}, {"measurement": "Static Storage 40° C./75% RH: XRPD", "setting": "[1]", "result": "NAP Pattern 1"}]}
{"compound": "Psilocin tartrate", "values": [{"measurement": "Static Storage 40° C./75% RH: XRPD", "setting": "[1]", "result": "TAR Pattern 4"}]}
{"compound": "Psilocin adipate [Psilocin adipate ADI Pattern 2]", "values": [{"measurement": "Static Storage 40° C./75% RH: HPLC", "setting": "[1]", "result": "HPLC- 98.1%"}, {"measurement": "Static Storage 40° C./75% RH: XRPD", "setting": "[1]", "result": "ADI Pattern 3"}]}
{"compound": "CCC(=O)O.CN(C)CCc1c[nH]c2cccc(O)c12", "note": "[Psilocin propionate PRO Pattern 1, Psilocin propionate]", "values": [{"measurement": "Static Storage 40° C./75% RH: HPLC", "setting": "[1]", "result": "HPLC- 99.4%"}, {"measurement": "Static Storage 40° C./75% RH: XRPD", "setting": "[1]", "result": "PRO Pattern"}]}
